From US20240327381A1, “Compounds and Compositions for Selective Degradation of Engineered Proteins” (Celgene Corporation, priority 2023, published 2024)
Where two headings read alike, the source gives them in different places.

Key:
Helios = biological target: T1, Helios (Homo sapiens, UniProt Q9UKS7); assay: Helios degradation in Jurkat/Helios/HiBit cells (Nano-Glo luminescence); type: cell-based; conditions: 18 hr, read-out: Helios Jurkat Hibit IC50
T1 construct: endogenous in cells; host or cells: Jurkat cells, CRISPR/Cas9 knock-in of HiBit at the IKZF2 locus
Outline: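 Jurkat cells carrying CRISPR-knocked-in C-terminal HiBit-tagged endogenous IKZF2 were treated with compound in DMEM/10% FCS (10,000 cells/well) for 18 h at 37 °C. HiBit signal was read by Nano-Glo luminescence after 30 min at RT. EC50 for degradation came from a four-parameter logistic fit, with Ymax as % protein degraded.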

[1] = biological target: T2, IKZF1 ZNF2_ZNF3 Q1F degron-tagged CD19 CAR (Homo sapiens, UniProt Q13422, Q146F); assay: Degradation of Q1F degron-tagged CD19 CAR in Jurkat cells (flow cytometry of CAR levels); type: cell-based; conditions: for DC50: Jurkat cells expressing CD19 CAR tagged with IKZF1 ZNF2_ZNF3 Q1F, 18 hours at 37° C., CAR levels normalized to untreated cells, read-out: Q1F Jurkat IC50; for Dmax: read-out: Q1F Jurkat-YMax
T2 construct: ZNF2_ZNF3 Q1F degron (GERPFFCNQCGASFTQKGNLLRHIKLHSGEKPFKCHLCNYACRRRDALTGHLRTHS); fused on or other part: anti-CD19 scFv, CD28 transmembrane domain, 4-1BB costimulatory domain, CD3 zeta signaling domain (the CAR that carries the degron), and Nluc
Outline: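 Jurkat cells were lentivirally transduced with an anti-CD19 scFv/CD28 TM/4-1BB/CD3ζ CAR tagged with an IKZF1 ZNF2_ZNF3 Q1F degron–Nluc, then treated with compound titrations for 18 h at 37 °C. CAR surface levels were stained (20 min, 4 °C), read by flow cytometry and normalised to untreated cells. EC50 came from a four-parameter logistic fit; Ymin is the minimum % CAR remaining.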

[2] = Ymax is the % protein degraded, Jurkat cells expressing Q1F degron-tagged CD19 CAR, 18 hours

T2 sequence (Q13422 whole entry Q146F, the tested form may be a part): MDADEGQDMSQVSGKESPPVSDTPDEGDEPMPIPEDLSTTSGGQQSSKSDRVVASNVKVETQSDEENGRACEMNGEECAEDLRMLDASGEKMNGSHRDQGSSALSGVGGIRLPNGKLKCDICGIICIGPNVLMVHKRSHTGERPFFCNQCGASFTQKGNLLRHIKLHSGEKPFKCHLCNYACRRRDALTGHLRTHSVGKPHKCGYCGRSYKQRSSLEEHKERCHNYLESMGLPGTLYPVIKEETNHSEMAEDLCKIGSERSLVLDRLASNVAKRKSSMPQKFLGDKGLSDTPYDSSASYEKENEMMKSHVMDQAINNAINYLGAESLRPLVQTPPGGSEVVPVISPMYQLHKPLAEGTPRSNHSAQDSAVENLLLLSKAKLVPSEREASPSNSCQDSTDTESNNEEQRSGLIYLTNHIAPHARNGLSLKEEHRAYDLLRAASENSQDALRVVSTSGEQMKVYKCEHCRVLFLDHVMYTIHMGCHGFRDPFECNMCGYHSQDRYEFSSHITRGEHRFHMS
T1 sequence (Q9UKS7 whole entry): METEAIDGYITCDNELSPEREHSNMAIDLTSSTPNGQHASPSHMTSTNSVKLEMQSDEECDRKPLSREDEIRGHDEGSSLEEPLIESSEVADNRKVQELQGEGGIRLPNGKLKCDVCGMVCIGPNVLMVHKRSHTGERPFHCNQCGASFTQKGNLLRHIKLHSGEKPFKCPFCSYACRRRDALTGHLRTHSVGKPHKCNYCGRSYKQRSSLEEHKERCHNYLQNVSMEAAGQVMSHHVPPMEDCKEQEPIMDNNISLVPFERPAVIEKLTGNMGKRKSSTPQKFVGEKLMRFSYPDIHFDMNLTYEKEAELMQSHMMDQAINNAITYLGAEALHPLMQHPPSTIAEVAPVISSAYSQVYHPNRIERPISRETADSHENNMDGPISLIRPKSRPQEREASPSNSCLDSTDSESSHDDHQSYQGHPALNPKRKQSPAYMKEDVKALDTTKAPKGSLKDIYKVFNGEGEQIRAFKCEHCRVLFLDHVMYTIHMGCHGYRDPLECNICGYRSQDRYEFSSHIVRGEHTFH
T1 sequence (Q96SW2 whole entry, further chain): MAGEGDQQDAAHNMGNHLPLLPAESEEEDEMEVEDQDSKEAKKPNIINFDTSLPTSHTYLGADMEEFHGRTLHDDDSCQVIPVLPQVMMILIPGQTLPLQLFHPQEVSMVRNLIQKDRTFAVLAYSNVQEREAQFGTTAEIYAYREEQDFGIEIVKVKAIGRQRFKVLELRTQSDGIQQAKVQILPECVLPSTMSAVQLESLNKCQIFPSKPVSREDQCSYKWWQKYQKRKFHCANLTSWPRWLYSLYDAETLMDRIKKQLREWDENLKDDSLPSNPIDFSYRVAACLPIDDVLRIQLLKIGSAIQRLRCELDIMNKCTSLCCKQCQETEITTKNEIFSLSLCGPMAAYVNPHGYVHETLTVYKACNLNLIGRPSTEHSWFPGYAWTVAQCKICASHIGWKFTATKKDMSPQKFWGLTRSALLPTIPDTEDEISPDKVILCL
T1 sequence (Q16531 whole entry partner): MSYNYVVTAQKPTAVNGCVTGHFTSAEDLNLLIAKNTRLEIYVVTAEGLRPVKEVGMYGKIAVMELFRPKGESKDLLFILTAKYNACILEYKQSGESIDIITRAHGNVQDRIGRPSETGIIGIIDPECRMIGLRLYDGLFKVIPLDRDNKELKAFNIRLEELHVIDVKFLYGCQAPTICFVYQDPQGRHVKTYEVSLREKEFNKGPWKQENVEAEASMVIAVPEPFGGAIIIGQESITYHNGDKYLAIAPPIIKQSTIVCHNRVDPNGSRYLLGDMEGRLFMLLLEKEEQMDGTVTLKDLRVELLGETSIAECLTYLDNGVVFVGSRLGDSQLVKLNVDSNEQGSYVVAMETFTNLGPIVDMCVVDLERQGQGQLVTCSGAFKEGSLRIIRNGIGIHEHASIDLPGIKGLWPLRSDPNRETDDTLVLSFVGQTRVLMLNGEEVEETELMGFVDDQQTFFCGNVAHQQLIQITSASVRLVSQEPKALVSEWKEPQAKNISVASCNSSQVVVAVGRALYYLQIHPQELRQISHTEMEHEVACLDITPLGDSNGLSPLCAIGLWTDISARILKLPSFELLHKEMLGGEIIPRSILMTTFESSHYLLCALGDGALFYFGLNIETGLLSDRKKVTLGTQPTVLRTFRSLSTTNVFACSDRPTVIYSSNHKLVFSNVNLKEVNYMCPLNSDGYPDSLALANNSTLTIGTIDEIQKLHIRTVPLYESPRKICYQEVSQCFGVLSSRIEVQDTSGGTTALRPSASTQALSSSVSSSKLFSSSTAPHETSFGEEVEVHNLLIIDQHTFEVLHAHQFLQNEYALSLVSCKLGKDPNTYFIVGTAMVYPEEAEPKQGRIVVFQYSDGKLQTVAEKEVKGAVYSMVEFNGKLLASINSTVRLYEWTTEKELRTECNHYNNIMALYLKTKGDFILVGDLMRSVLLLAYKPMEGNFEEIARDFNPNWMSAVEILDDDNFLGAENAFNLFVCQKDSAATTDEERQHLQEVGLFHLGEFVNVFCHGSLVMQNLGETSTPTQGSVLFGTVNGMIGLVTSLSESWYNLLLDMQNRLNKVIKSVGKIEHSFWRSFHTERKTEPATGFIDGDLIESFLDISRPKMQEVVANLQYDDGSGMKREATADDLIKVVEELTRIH

Compound | DC50 (Helios) [nM] | DC50 [1] [nM] | Dmax [1, 2] [%] | Dmax ([1]; Jurkat, 18 h) [%]
CN(CCN1CCC(c2cc3c(cc2F)C(=O)N(C2CCC(=O)NC2=O)C3)CC1)Cc1ccccc1 (stereo not drawn) [Compound 80, 3-(5-(1-(2-(benzyl(methyl)amino)ethyl)piperidin-4-yl)-6-fluoro-1-oxoisoindolin-2-yl)piperidine-2,6-dione] | ≥ 10000 | 0.533 | 85.1 | –
O=C1CCC(N2Cc3cc(C4CCN(Cc5ccc6ncsc6c5)CC4)c(F)cc3C2=O)C(=O)N1 (stereo not drawn) [Compound 81, 3-(5-(1-(benzo[d]thiazol-6-ylmethyl)piperidin-4-yl)-6-fluoro-1-oxoisoindolin-2-yl) piperidine-2,6-dione] | ≥ 10000 | 3.06 | 93 | –
O=C1CCC(N2Cc3cc(C4CCN(CC5CCCCC5)CC4)c(F)cc3C2=O)C(=O)N1 (stereo not drawn) [Compound 82, 3-(5-(1-(cyclohexylmethyl)piperidin-4-yl)-6-fluoro-1-oxoisoindolin-2-yl)piperidine-2,6-dione] | ≥ 10000 | 1.72 | 88.2 | –
O=C1CCC(N2Cc3cc(C4CCN(Cc5nc6ccccc6s5)CC4)c(F)cc3C2=O)C(=O)N1 (stereo not drawn) [Compound 83, 3-(5-(1-(benzo[d]thiazol-2-ylmethyl)piperidin-4-yl)-6-fluoro-1-oxoisoindolin-2-yl)piperidine-2,6-dione] | ≥ 10000 | 19.9 | 76.8 | –
Cc1ccc(CN2CCC(c3cc4c(cc3F)C(=O)N(C3CCC(=O)NC3=O)C4)CC2)cc1 (stereo not drawn) [Compound 84, 3-(6-fluoro-5-(1-(4-methylbenzyl)piperidin-4-yl)-1-oxoisoindolin-2-yl)piperidine-2,6-dione] | ≥ 10000 | 2.1 | 90.3 | –
O=C1CCC(N2Cc3cc(C4CCN(Cc5ccc(C(F)(F)F)cc5)CC4)c(F)cc3C2=O)C(=O)N1 (stereo not drawn) [Compound 85, 3-(6-fluoro-1-oxo-5-(1-(4-(trifluoromethyl)benzyl)piperidin-4-yl)isoindolin-2-yl) piperidine-2,6-dione] | ≥ 10000 | 1.53 | – | 89.3
O=C1CCC(N2Cc3cc(C4CCN(Cc5ccc6scnc6c5)CC4)c(F)cc3C2=O)C(=O)N1 (stereo not drawn) [Compound 86, 3-(5-(1-(benzo[d]thiazol-5-ylmethyl)piperidin-4-yl)-6-fluoro-1-oxoisoindolin-2-yl)piperidine-2,6-dione] | ≥ 10000 | 1.94 | 92.1 | –
O=C1CCC(N2Cc3cc(C4CCN(Cc5ccc6cn[nH]c6c5)CC4)c(F)cc3C2=O)C(=O)N1 (stereo not drawn) [Compound 87, 3-(5-(1-((1H-indazol-6-yl)methyl)piperidin-4-yl)-6-fluoro-1-oxoisoindolin-2-yl)piperidine-2,6-dione] | ≥ 10000 | 4.06 | 94.2 | –
O=C1CCC(N2Cc3cc(C4CCN(Cc5ccc6c(c5)CCC6)CC4)c(F)cc3C2=O)C(=O)N1 (stereo not drawn) [Compound 88, 3-(5-(1-((2,3-dihydro-1H-inden-5-yl)methyl)piperidin-4-yl)-6-fluoro-1-oxoisoindolin-2-yl)piperidine-2,6-dione] | ≥ 10000 | 3.1 | 91.6 | –
O=C1CCC(N2Cc3cc(C4CCN(Cc5ccc6[nH]ccc6c5)CC4)c(F)cc3C2=O)C(=O)N1 (stereo not drawn) [Compound 89, 3-(5-(1-((1H-indol-5-yl)methyl)piperidin-4-yl)-6-fluoro-1-oxoisoindolin-2-yl)piperidine-2,6-dione] | ≥ 10000 | 2.67 | 94.2 | –
CS(=O)(=O)c1ccc(CN2CCC(c3cc4c(cc3F)C(=O)N(C3CCC(=O)NC3=O)C4)CC2)cc1 (stereo not drawn) [Compound 90, 3-(6-fluoro-5-(1-(4-(methylsulfonyl)benzyl)piperidin-4-yl)-1-oxoisoindolin-2-yl)piperidine-2,6-dione] | ≥ 10000 | 4.68 | 93.1 | –
O=C1CCC(N2Cc3cc(C4CCN(Cc5cccc6ncsc56)CC4)c(F)cc3C2=O)C(=O)N1 (stereo not drawn) [Compound 91, 3-(5-(1-(benzo[d]thiazol-7-ylmethyl)piperidin-4-yl)-6-fluoro-1-oxoisoindolin-2-yl)piperidine-2,6-dione] | ≥ 10000 | 3.9 | 92.1 | –
O=C1CCC(N2Cc3c(cc(F)c(CNC(=O)c4ccc5c(c4)CCC5)c3F)C2=O)C(=O)N1 (stereo not drawn) [Compound 92, N-((2-(2,6-dioxopiperidin-3-yl)-4,6-difluoro-1-oxoisoindolin-5-yl)methyl)-2,3-dihydro-1H-indene-5-carboxamide] | ≥ 10000 | 9.16 | 63.2 | –
Cc1cc(-c2c(F)cc3c(c2F)CN(C2CCC(=O)NC2=O)C3=O)nc(N)c1C (stereo not drawn) [Compound 93, 3-(5-(6-amino-4,5-dimethylpyridin-2-yl)-4,6-difluoro-1-oxoisoindolin-2-yl) piperidine-2,6-dione] | ≥ 10000 | 217 | – | 69.1
O=C1CCC(N2Cc3c(cc(F)c(-c4ccc5c(n4)NCCC5)c3F)C2=O)C(=O)N1 (stereo not drawn) [Compound 94, 3-(4,6-difluoro-1-oxo-5-(5,6,7,8-tetrahydro-1,8-naphthyridin-2-yl)isoindolin-2-yl) piperidine-2,6-dione] | ≥ 10000 | 655 | 60.9 | –
CC(C)CN1CCC(c2c(F)cc3c(c2F)CN(C2CCC(=O)NC2=O)C3=O)CC1 (stereo not drawn) [Compound 95, 3-(4,6-difluoro-5-(1-isobutylpiperidin-4-yl)-1-oxoisoindolin-2-yl)piperidine-2,6-dione] | ≥ 10000 | 10.5 | 84.5 | –
O=C1CCC(N2Cc3c(cc(F)c(C4CCN(Cc5ccc(Cl)cc5)CC4)c3F)C2=O)C(=O)N1 (stereo not drawn) [Compound 96, 3-(5-(1-(4-chlorobenzyl)piperidin-4-yl)-4,6-difluoro-1-oxoisoindolin-2-yl)piperidine-2,6-dione] | ≥ 10000 | 4.17 | 89.7 | –
O=C1CCC(N2Cc3c(cc(F)c(C4CCN(C5CCCCC5)CC4)c3F)C2=O)C(=O)N1 (stereo not drawn) [Compound 97, 3-(5-(1-cyclohexylpiperidin-4-yl)-4,6-difluoro-1-oxoisoindolin-2-yl)piperidine-2,6-dione] | ≥ 10000 | 3.88 | 88.3 | –
CS(=O)(=O)NCCN1CCC(c2c(F)cc3c(c2F)CN(C2CCC(=O)NC2=O)C3=O)CC1 (stereo not drawn) [Compound 98, N-(2-(4-(2-(2,6-dioxopiperidin-3-yl)-4,6-difluoro-1-oxoisoindolin-5-yl)piperidin-1-yl)ethyl)methanesulfonamide] | ≥ 10000 | 39.8 | 76.9 | –
O=C1CCC(N2Cc3c(cc(F)c(C4CCN(Cc5nc(-c6ccccc6)no5)CC4)c3F)C2=O)C(=O)N1 (stereo not drawn) [Compound 99, 3-(4,6-difluoro-1-oxo-5-(1-((3-phenyl-1,2,4-oxadiazol-5-yl)methyl)piperidin-4-yl)isoindolin-2-yl)piperidine-2,6-dione] | ≥ 10000 | 369 | 58.6 | –
COCCOCCN1CCC(c2c(F)cc3c(c2F)CN(C2CCC(=O)NC2=O)C3=O)CC1 (stereo not drawn) [Compound 100, 3-(4,6-difluoro-5-(1-(2-(2-methoxyethoxy)ethyl)piperidin-4-yl)-1-oxoisoindolin-2-yl)piperidine-2,6-dione] | ≥ 10000 | 22.6 | 75.5 | –
CC(=O)Nc1ccc(CN2CCC(c3c(F)cc4c(c3F)CN(C3CCC(=O)NC3=O)C4=O)CC2)cc1 (stereo not drawn) [Compound 101, N-(4-((4-(2-(2,6-dioxopiperidin-3-yl)-4,6-difluoro-1-oxoisoindolin-5-yl)piperidin-1-yl)methyl)phenyl)acetamide] | ≥ 10000 | 0.473 | 86.9 | –
Cn1nccc1CN1CCC(c2c(F)cc3c(c2F)CN(C2CCC(=O)NC2=O)C3=O)CC1 (stereo not drawn) [Compound 102, 3-(4,6-difluoro-5-(1-((1-methyl-1H-pyrazol-5-yl)methyl)piperidin-4-yl)-1-oxoisoindolin-2-yl)piperidine-2,6-dione] | ≥ 10000 | 0.283 | 84.3 | –
Cc1cc(CN2CCC(c3c(F)cc4c(c3F)CN(C3CCC(=O)NC3=O)C4=O)CC2)nn1C (stereo not drawn) [Compound 103, 3-(5-(1-((1,5-dimethyl-1H-pyrazol-3-yl)methyl)piperidin-4-yl)-4,6-difluoro-1-oxoisoindolin-2-yl)piperidine-2,6-dione] | ≥ 10000 | 1.96 | 84.7 | –
O=C1CCC(N2Cc3c(cc(F)c(C4CCN(Cc5nc(C6CC6)cs5)CC4)c3F)C2=O)C(=O)N1 (stereo not drawn) [Compound 104, 3-(5-(1-((4-cyclopropylthiazol-2-yl)methyl)piperidin-4-yl)-4,6-difluoro-1-oxoisoindolin-2-yl)piperidine-2,6-dione] | ≥ 10000 | 30.9 | 83.6 | –
O=C1CCC(N2Cc3c(cc(F)c(C4CCN(Cc5nc(C(F)(F)F)cs5)CC4)c3F)C2=O)C(=O)N1 (stereo not drawn) [Compound 105, 3-(4,6-difluoro-1-oxo-5-(1-((4-(trifluoromethyl)thiazol-2-yl)methyl)piperidin-4-yl)isoindolin-2-yl)piperidine-2,6-dione] | ≥ 10000 | 83.5 | 75.3 | –
